In publication PMC9643456, “Matching amino acids membrane preference profile to improve activity of antimicrobial peptides” (Communications Biology, 2022):
Values after ≈ are worked out from the molar mass of the structure shown. Square brackets hold non-standard residues; d marks the D form. Peptide text beside a SMILES is read from it.

How the values were obtained:
E. coli ML35 = details: ML35, 18 h
Procedure: To assess antimicrobial activity, the MIC50 and MIC90 were measured using broth microdilution following CLSI guidelines. […] Each experiment was performed in triplicate. Meropenem (Sigma, Darmstadt, Germany) and colistin were used as control antibiotics. Cation-adjusted Mueller–Hinton broth (CAMHB) (Becton, Dickinson and Company, Franklin Lakes, USA) with supplied calcium (50 mg/L) and magnesium (10 mg/L) was used for the CLSI-test condition. Bacteria in midlog phase and peptides were separately diluted in CAMHB. The bacteria and peptide solutions were then mixed in 96-well polyethylene plates (SPL, Gyeonggi-do, Korea) and incubated for 18 h at 37 °C. The final concentration for bacteria was 5 × 10^5 CFU/ml. […] The MIC was defined to be the lowest concentration of peptide without visible turbidity by comparing with control antibiotics with the unaided eye. […] MICs in albumin and acetic acid solutions were measured using the same protocol but with 0.2% bovine serum albumin (Bovogen, Keilor, Australia), 0.01% acetic acid (Merck, New Jersey, USA), and CAMHB with both calcium and magnesium. In addition, MICs used in the antibiotic resistance acquisition test, the outer–inner membrane permeation test, and the transmembrane potential test and for FE-SEM were individually determined. […] Inhibitory activity unidentifiable by direct observation was determined by counting the CFUs. […]

[1] = 100 mg/kg s.c. daily for 3 days, n = 3; BUN and creatinine
Procedure: To assess nephrotoxicity, mice (female BALB/c, 8 weeks old; n = 3) were subcutaneously administered WCopW43 (100 mg/kg) or PBS (controls) three times (once every 24 h). Blood samples were then collected from the retroorbital veins into heparin-coated glass capillary tubes (Kimble Chase, NJ, USA), which were then centrifuged at 4000 rpm. The serum was collected and analyzed using a blood urea nitrogen (BUN) assay kit (Arbor Assay, Ann Arbor, USA) and a creatinine assay kit (Arbor Assay). Levels of BUN and blood creatinine clearance were measured using a SpectraMax plate spectrophotometer (Molecular Devices) at 450 nm and 490 nm, respectively.

SMILES | MIC at OM-IM permeation condition, E. coli ML35 (E. coli ML35) [µM] | Nephrotoxicity indicators [1]
CC[C@@H](C)[C@@H](NC(=O)[C@@H](Cc1c[nH]c2ccccc12)NC(=O)[C@H](NC(=O)[C@@H](CC(C)C)NC(=O)[C@H](N)Cc1c[nH]c2ccccc12)C(C)C)C(=O)N[C@H](Cc1c[nH]c2ccccc12)C(=O)N[C@H](CCCNC(=N)N)C(=O)N[C@H](CCCNC(=N)N)C(=O)N[C@H](CCCNC(=N)N)C(N)=O [WCopW29] (H-[dW][dL][dV][dW][dI][dW][dR][dR][dR]-NH2) | 5 (≈ 6.85 µg/mL) | 
CC[C@@H](C)[C@@H](NC(=O)[C@@H](Cc1c[nH]c2ccccc12)NC(=O)[C@@H](CCCNC(=N)N)NC(=O)[C@@H](CCCNC(=N)N)NC(=O)[C@H](N)CCCNC(=N)N)C(=O)N[C@H](Cc1c[nH]c2ccccc12)C(=O)N[C@@H](C(=O)N[C@@H](C(=O)N[C@H](Cc1c[nH]c2ccccc12)C(=O)N[C@H](CCCCN)C(N)=O)[C@H](C)CC)C(C)C [WCopW43] (H-[dR][dR][dR][dW][dI][dW][dV][dI][dW][dK]-NH2) |  | non-nephrotoxic
